Columns and labels:
[1] = system: alpha-synuclein transfected U2OS cells; experiment: U2OS ATP assay of alpha-synuclein toxicity; type: cell-based, human; settings: 72 h after transfection/treatment; titration; normalized to DMSO control
Experimental: U2OS cells were transfected with empty vector control (“pcDNA”) or alpha-synuclein (“α-synuclein/pcDNA”) in combination with a scrambled (SCR) siRNA control (50 nM), or human SCD5 siRNA (10, 25 or 50 nM). (FIG. 12A) Cellular heath was assessed 48 h after transfection by evaluating ATP levels. Cell toxicity in the alpha-synuclein plus SCR siRNA was set as the floor of the assay, and then all samples were normalized to pcDNA with […] (set to 100%) to calculate the normalized percent rescue. Bars depict mean values of triplicate determinations; error bars indicate standard deviation. A two-tailed t-test was used to compare control conditions with SCR or SCD5 siRNA (*p 0.05). Cells transfected with alpha-synuclein were analyzed together by ANOVA with Dunnett's post-test to correct for multiple comparisons (**p 0.01, ****p 0.0001). Significance is shown for the comparison of each alpha-synuclein plus SCD5 siRNA concentration compared against the alpha-synuclein plus SCR control. (FIG. 12B) Quantitative RT-PCR was utilized to confirm the levels of SCD5 mRNA. […]
Powders of reference SCD inhibitors (CAY10566, A939572 and MF-438) were resuspended and serial diluted in DMSO. […] ATP content was then measured using the CellTiter-Glo® kit (Promega) with luminescence signals measured on an EnVision multimode plate reader (Perkin Elmer).

[2] = system: human iPSC-derived neurons harboring the alpha-synuclein A53T mutation; experiment: Neuron survival assay, human iPSC-derived neurons harboring the alpha-synuclein A53T mutation; type: cell-based; settings: 100 nM and 30 nM; relative to DMSO controls in A53T neurons; 8 to 10 d
Experimental: FIG. 15 is a graph showing that SCD inhibition with CAY10566 reduced the cumulative risk of death in human iPSC-derived neurons harboring the alpha-synuclein A53T mutation. Human iPSC cells harboring the alpha-synuclein A53T mutation or an isogenic control line in which the mutation was corrected to wild-type were trans-differentiated into neurons. Single cells were evaluated for survival (based on overall morphology) over the course of the 192 hour study. Cell survival data was analyzed by a non-parametric Kaplan-Meier procedure to estimate survival probability, which is shown as the cumulative risk of cell death. (HR, hazard ratio; P, p value (*<0.05, ns=not significant (>0.05)); CI, confidence interval; N, number of neurons tracked). […]
Transfected neuronal cultures were imaged at 12-24 h intervals for the indicated number of days by robotic microscopy. Fluorescence images were acquired with a Nikon Eclipse Ti microscope equipped with a motorized stage, 20× extra-long working distance (ELWD) objective, and an Andor Zyla cMOS camera. […] Images were processed and analyzed with custom-made scripts in R and ImageJ software. The lifetimes of individual neurons were determined by tracking fluorescently-labeled neurons in ImageJ. Neuronal death was determined to occur upon incidence of RFP signal loss or rupture of cell body. […]

[3] = system: alpha-synuclein (A53T) transfected rat cortical neurons; experiment: Neurite degeneration assay in transfected rat cortical neurons; type: cell-based
Experimental: Rat primary cortical neurons cultured in 96-well plates (Greiner Bio-One) were co-transfected with a fluorescence reporter plasmid (encoding mKate2) and empty or alpha-synuclein-A53T overexpression plasmids by lipofection at 5-6 div (days in vitro). LIPOFECTAMINE® 2000 transfection reagent (Thermo Fisher) (0.5 μl/well) was diluted in NEUROBASAL® media (Thermo Fisher) and incubated for 5-10 min. The LIPOFECTAMINE®/NEUROBASAL® mixture was then added dropwise to a plasmid cocktail diluted in NEUROBASAL® media, and incubated for approximately 40 min. During this time, conditioned media on the neurons was replaced with media containing 1× kynurenic Acid (Sigma-Aldrich) in NEUROBASAL® media (NBKY). LIPOFECTAMINE®/DNA complex solutions were subsequently added dropwise to neurons in the NBKY media in the 96-well plate. Lipofection was carried out for 30-40 min in a standard cell culture incubator (37° C., 5% CO2). Neurons were then washed with NEUROBASAL® media, and 50% conditioned/50% fresh NEUROBASAL® media containing B-27 supplement and GlutaMax™ (Thermo Fisher) (NBM) was applied to the cultures.
Transfected rat cortical neuron cultures were treated with DMSO or CAY10566 compound 4-6 h post-transfection. […] Neurite lengths of transfected neurons were tracked by an RFP reporter, mKate2, and measured by NeuroTrack™ Software Module (Essen Bioscience). […]

SMILES: Cc1nnc(-c2ccc(N3CCC(Oc4cc(F)ccc4Cl)CC3)nn2)o1 [CAY10566]
- cellular ATP levels in alpha-synuclein transfected U2OS cells [1]: significantly reversed alpha-synuclein-dependent decreases in ATP levels
- risk of neuron death [2]: significantly reduced
- neurite degeneration at highest concentrations ([3]; 10 nM and 3 nM, overlapping with control cultures not transfected with alpha-synuclein A53T): complete rescue
- neurite degeneration ([3]; titration from 10 nM down to 10 pM, tracked every 6 h for 7 d, relative to DMSO): concentration-dependent decrease in neurite degeneration

— patent US10973810B2, “Methods for the treatment of neurological disorders” (Yumanity Therapeutics, Inc., priority 2017, dated 2021)
